From patent publication US20090035345A1, “Nuclear Receptors Agonists for Treatment of Atherosclerosis and/or Related Cardiovascular Disease” (ACADEMISCH MEDISCH CENTRUM, BUREAU, priority 2005, published 2009)

How the values were obtained:
[1] = test system: SMα-actin, calponin and p27Kip1 protein; assay: Western blotting of stretched venous SMCs; assay type: cell-based, human; conditions: 25 μM 6-MP
Procedure: Sodium dodecyl sulfate-polyacrylamide gel electrophoresis was performed with cell lysates (30 microg per lane) and concentrated culture media (equivalent of 200 microl per lane). Proteins were transferred to nitrocellulose-Protran (Schleicher and Schuell, 's-Hertogenbosch, The Netherlands).
Expression of p27^Kip1 (BD Biosciences, Alphen a/d Rijn, The Netherlands), p21^Cip1 (BD), SM alpha-actin (DAKO), PAI-1 (MAI-12; Biopool, Umea, Sweden), TR3 (M-210; Santa Cruz Biotechnology, Santa Cruz, Calif.), calponin (clone hCP; Sigma) and alpha-tubulin (Cedar Lane, Hornby, Ontario, Canada) was studied, using the indicated antibodies directed against these proteins. Primary antibodies were incubated overnight at 4° C. in 5% Protifar plus (Nutricia, Cuijk, The Netherlands) in TBS. As secondary antibodies, horseradish peroxidase-conjugated goat anti-rabbit (for p27^Kip1 and TR3 detection) or goat anti-mouse (for all others) (BioRad 11 Laboratories Inc., Hercules, Calif.) in a dilution of 1:5000 in TBS were used.
Proteins were visualized by enhanced chemiluminescence detection (Lumi-Light^PLUS; Roche Diagnostics GmbH, Mannheim, Germany). Quantitative analysis was performed by the Lumi-Imager (Boehringer Mannheim, Mannheim, Germany). alpha-Tubulin staining served as a control for loading.

human SMCs = assay: DNA synthesis assay ([3H]thymidine incorporation) in FBS-stimulated cultured SMCs; assay type: cell-based
Procedure: Human SMCs were explanted from umbilical cord arteries. Cells were cultured in DMEM (Invitrogen Life Technology, Breda, The Netherlands) with 10% (v/v) fetal bovine serum (FBS) with penicillin and streptomycin (Invitrogen). Cells were used at passages five to seven. […] To determine cellular viability, cells were washed with PBS and subsequently incubated in medium in the presence of 0.5-mg/ml 3-(4,5-dimethylthiazol-2-yl)-2,5-diphenyltetrazolium bromide (MTT; Sigma Diagnostics, St. Louis). After two hours, medium was discarded, formazan crystals were dissolved in isopropanol and optical density was measured at 590 nm. Apoptosis was induced by incubating cells for 24 hours in medium with 0.25 μM staurosporine (Sigma). Subsequently, SMCs were fixed, stained with Hoechst dye and the relative number of apoptotic nuclei was determined.
SMCs were seeded in 24-well plates at 1−4×10^4 cells per well and reached 60% to 70% confluency after 24 hours. SMCs were made quiescent by incubation for 24 hours in FBS-free medium. 6-MP was dissolved in dimethylsulfoxide and applied one hour before FBS stimulation. SMCs were stimulated for 24 hours with 10% (v/v) FBS and subsequently cells were labeled for 18 hours with 0.25 μCi/well [methyl-3H]thymidine (Amersham Biosciences, Buckinghamshire, UK). Incorporated radioactivity was precipitated for 30 min at 4° C. with 10% (w/v) trichloroacetic acid, washed twice with 5% (w/v) trichloroacetic acid, and dissolved in 0.5 N NaOH (0.5 mL per well). Incorporated [^3H]thymidine was measured by liquid-scintillation counting.
(§1) The following small interfering (si)RNA sequences were used: Nur77 siRNA, 5′-CAG UCC AGC CAU GCU CCU C dTdT-3′, as described previously^20, and control siRNA, 5′-CAG ACG AGC CUU GCU CGU C dTdT-3′ (Ambion Inc., Austin, Tex.). Five μg of siRNA was transfected into 0.5−1×10^6 SMCs, using Nucleofector reagent for SMCs (Amaxa) as per the manufacturer's recommendations. Total mRNA was isolated five days after transfection, using the absolutely mRNA miniprep kit (Stratagene, La Jolla, Calif.). Subsequent cDNA synthesis was performed using the iScript cDNA synthesis kit (Biorad, Hercules, Calif.). Real-time polymerase chain reaction (PCR) was performed using SYBR green mix (Biorad) in the MyIQ System (Biorad). Primers for Nur77 were as follows: (forward) 5′-[…]-3′ and (reverse) 5′-[…]-3′. As a control for equal amount of first strand cDNA in different samples we corrected for Ribosomal Phosphoprotein (P0) mRNA levels, which were determined with the following primers (forward) 5′-[…]-3′ and (reverse) 5′-[…]-3′.
as §1, with “iscript” for “iScript”

For `Sc1ncnc2nc[nH]c12` [6-MP, 6-mercaptopurine], the “SMα-actin and calponin as well as p27Kip1 protein expression” value [1] was “increases”, the “DNA synthesis in SMCs” value (human SMCs; 25 μM or 50 μM) was “reduced” and the “inhibition of DNA synthesis” value (human SMCs; SMCs transfected with Nur77 (TR3)-specific siRNA) was 41%. For the same compound, the “inhibition of DNA synthesis” value (human SMCs; SMCs transfected with control siRNA) was 61% and the “DNA synthesis in SMCs” value (human SMCs; increasing concentrations, 10% FBS) was “inhibits DNA synthesis”.
